Assays:
Type in all cases: cell-based
[1] = test system: HCT 116 colon carcinoma; assay: Anchorage Dependent Growth Monolayer Assay (ADGMA), HCT 116; details: Homo sapiens, 72 h; HCT 116 colon carcinoma cells, 3-day exposure, MTT, A540; * = average of two independent experiments; read-out: IC50 HCT116
Source text: (§1) As indicated above, all of the compounds of formula I are anti-tumor agents and are, therefore, useful in inhibiting the growth of various lymphomas, sarcomas, carcinomas, myelomas, and leukemia cell lines. […] This assay was adapted from the 60 cell line assay used by the National Cancer Institute (NCI) with the following modifications:
(§2) 1) four cell lines representative for the important tumor types, viz., MIP 101 colon carcinoma, HCT 116 colon carcinoma, 1A9 ovarian carcinoma and 1A9PTX22 ovarian carcinoma were utilized; and 2) a tetrazolium derivative, viz., MTT, was utilized to determine cell density.
(§3) The ADGMA compares the number of viable cells following a 3-day exposure to a test compound relative to the number of cells present at the time the test compound was added. […] The absorbance at 540 nm (A540) of the formazan derivative is proportional to the number of viable cells. The IC50 for a test compound is the concentration of compound required to reduce the final cell number to 50% of the final control cell number. If cell proliferation is inhibited, the assay further defines compounds as cytostatic (cell number after 3-day compound incubation>cell number at time of compound addition) or cytotoxic (cell number after 3-day compound incubation<cell number at time of compound addition).
(§4) The HCT 116 colon carcinoma cell line was obtained from the American Type Culture Collection (ATCC, Rockville, Md.). The MIP 101 colon carcinoma was obtained from Dr. Robert Kramer (Bristol Meyers Squibb) and was previously described (Niles R M, Wilhelm S A, Steele G D JR, Burke B, Christensen T, Dexter D, O'Brien M J, Thomas P, Zamcheck N. Isolation and characterization of an undifferentiated human colon carcinoma cell line (MIP 101). Cancer Invest. 1987;5(6):545–52). The 1A9 and the 1A9PTX22 ovarian tumor cell lines were obtained from Dr. Tito Fojo, Medicine Branch, Division of Clinical Sciences, National Cancer Institute, National Institutes of Health, Bethesda, Md. 20892. The 1A9 is a clone of the ovarian carcinoma cell line, A2780 (Giannakakou P, Sackett, D L, Kang Y-K, Zhan Z, Buters J T M, Fojo T, Poruchynsky M S. Paclitaxel-resistant human ovarian cancer cells have mutant β-tubulins that impaired paclitaxel-driven polymerization. J. Biol. Chem. 1997, 272(4):17118–17125). The 1A9PTX22 subline was isolated as an individual clone from the 1A9 cell line in a single step selection by exposure to 5 ng/mL paclitaxel in the presence of 5 μg/mL of verapamil. All cell lines were used between passages 4–20 following thawing. MIP 101 colon carcinoma, HCT 116 colon carcinoma, 1A9 ovarian carcinoma and 1A9PTX22 ovarian carcinoma cell lines are maintained and plated in RPMI 1640 medium containing 10% fetal bovine serum.
(§5) Cells are trypsinized and counted using a hemacytometer to determine cell concentrations. Cells were then plated in their respective maintenance media (200 μL/well) in 96-well plates at the following concentrations: MIP 101, 2000 cells/well, HCT 116, 2000 cells/well, 1A9, 10000 cells/well, and 1A9PTX22, 10000 cells/well. […] Initial cell densities, assayed one day after plating, are roughly 0.10–0.20 A540 absorbance units greater than the media blank. Ninety-six-well plates were seeded on day 0 and the test compounds are added on day 1. A “time 0” plate was created that received media only in row A and one cell line/row in rows B–E. The “time 0” plate was processed 24 hours after plating (at the time when drugs were added to experimental plates), as follows: To each well 5 micoliters of the MTT stock solution (0.5 mg/mL in PBS) was added to each well and then incubated for three hours at 37° C., 5% CO2, in a humidified environment. Media was then carefully and completely removed. Plates were allowed to dry in the dark. Dimethylsulfoxide (DMSO) was added to each well (100 μL/well) and plates were placed on an orbital shaker for 2 hours. […]

[2] = test system: MIP 101 colon carcinoma; assay: Anchorage Dependent Growth Monolayer Assay (ADGMA), MIP 101; details: Homo sapiens, Colon carcinoma cell, 72 h; MIP 101 colon carcinoma cells, 3-day exposure, MTT, A540; * = average of two independent experiments
Source text: as §1, §2, §3, §4, §5

[3] = test system: 1A9PTX22 ovarian carcinoma; assay: Anchorage Dependent Growth Monolayer Assay (ADGMA), 1A9PTX22; details: Homo sapiens, 1A9/ptx-22, 72 h; 1A9PTX22 ovarian carcinoma cells (paclitaxel-selected subline), 3-day exposure, MTT, A540; * = average of two independent experiments
Source text: as §1, §2, §3, §4, §5

[4] = test system: 1A9 ovarian carcinoma; assay: Anchorage Dependent Growth Monolayer Assay (ADGMA), 1A9; details: Homo sapiens, Ovarian carcinoma cell, 72 h; 1A9 ovarian carcinoma cells, 3-day exposure, MTT, A540; * = average of two independent experiments
Source text: as §1, §2, §3, §4, §5

SMILES	IC50 [1]	IC50 [2]	IC50 [3]	IC50 [4]
C=C/C=C\[C@H](C)C(OC(N)=O)C(C)C(O)C(C)C/C(C)=C\[C@H](C)[C@@H](O)[C@@H](C)CN(C)C(=O)CC1CCCCC1 (some centres unmarked) [Ex. 5]	300 nM	600 nM	80 nM	400 nM
C=C/C=C\[C@H](C)C(OC(N)=O)C(C)C(O)C(C)C/C(C)=C\[C@H](C)[C@@H](O)[C@@H](C)/C=C\C(O)CC(C)C (stereo partly drawn) [Ex. 7, (2S,3Z,5S,6S,7S,8Z,11S,12R,13R,14S,15S,16Z)-1-isopropyl-5,7,9,11,13,15-hexamethyl-3,8,16,18-nonadecatetraene-2,6,12,14-tetrol-14-carbamate]	30 nM	100 nM	60 nM	30 nM
C=C/C=C\[C@H](C)[C@H](OC(N)=O)[C@@H](C)[C@H](O)[C@@H](C)C/C(C)=C\C(C)C(O)C(C)/C=C\[C@@H](O)C[C@H]1CCCC(=O)O1 (stereo partly drawn) [Ex. 1, 6-[(2S,3Z,8Z,11S,12R,13S,14S,15S,16Z)-14-[(aminocarbonyl)oxy]-2,6,12-trihydroxy-5,7,9,11,13,15-hexamethyl-3,8,16,18-nonadecatetraenyl]tetrahydro-(6R)-2H-pyran-2-one]	7 ± 5 nM	60 ± 10 nM	7 ± 2 nM	6 ± 2 nM
CC(=O)O[C@H]1C(=O)[C@@]2(C)[C@H]([C@H](OC(=O)c3ccccc3)[C@]3(O)C[C@H](OC(=O)[C@H](O)[C@@H](NC(=O)c4ccccc4)c4ccccc4)C(C)=C1C3(C)C)[C@]1(OC(C)=O)CO[C@@H]1C[C@@H]2O [Paclitaxel, reference compound]	0.3 ± 0.2 nM	200 ± 60 nM	1 ± 1 nM	47 ± 7 nM
C=C/C=C\[C@H](C)C(OC(N)=O)C(C)C(O)C(C)C/C(C)=C\[C@H](C)[C@@H](O)[C@@H](C)COC(=O)NC1CCCCC1 (stereo partly drawn) [Ex. 2, (5Z,8S,9R,10S,11S,12S,13Z)-11-[(aminocarbonyl)oxy]-3,9-dihydroxy-2,4,6,8, 10,12-hexamethyl-5,13,15-hexadecatrienyl ester cyclohexylcarbamic acid]	400 nM	3200 nM	400 nM	500 nM
C=C/C=C\[C@H](C)C(OC(N)=O)C(C)C(O)C(C)C/C(C)=C\[C@H](C)[C@@H](O)[C@@H](C)/C=C\C(O)CC1CCCC1 (stereo partly drawn) [Ex. 6, (2S,3Z,5S,6S,7S,8Z,11S,12R,13R,14S,15S,16Z)-1-cyclopentyl-5,7,9,11,13,15-hexamethyl-3,8,16,18-nonadecatetraene-2,6,12,14-tetrol-14-carbamate]	1 nM	6 nM	1 nM	0.3 nM
C=C/C=C\[C@H](C)C(OC(N)=O)C(C)C(O)C(C)C/C(C)=C\[C@H](C)[C@@H](O)[C@@H](C)/C=C\C(=O)N(C)c1ccccc1 (stereo partly drawn) [Ex. 4, (2Z,7Z,10S,11R,12S,13S,14S,15Z)-13-[(aminocarbonyl)oxy]-5,11-dihydroxy-N,4,6,8,10,12,14-heptamethyl-N-phenyl 2,7,15,17-octadecatetraenamide]	800 nM	3200 nM	400 nM	500 nM
C=C/C=C\[C@H](C)C(OC(N)=O)C(C)C(O)C(C)C/C(C)=C\[C@H](C)[C@@H](O)[C@@H](C)/C=C\COc1ccccc1 (stereo partly drawn) [Ex. 3, (2Z,7Z,10S,11R,12S,13S,14S,15Z)-4,6,8,10,12,14-hexamethyl-1-phenoxy-2,7,15,17-octadecatetraene-5,11,13-triol-13-carbamate]	200 ± 100 nM	400 ± 100 nM	100 ± 40 nM	300 ± 90 nM

From patent US7192980B2, “Certain substituted polyketides, pharmaceutical compositions containing them and their use in treating tumors” (Novartis AG, priority 2001, dated 2007)
